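Cultured in 96-well plates, cells were exposed to test compound for 48 hours across five concentrations. GI50 = concentration required for 50% inhibition of growth.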 The source made the active and inactive calls. Cut-off read from the data, not from the text of the source: active = GI50 up to about 1.1 µM and inactive = higher. Bounds are passed on as bounds.

Some test systems named below: HOP-62; SNB-78; NCI-H522; TK-10; LXFL 529; SW-620; NCI/ADR-RES; HCT-15; COLO 205; MCF7; SK-MEL-28; DMS-273; KM-20L2; HOP-18; DMS-114; SF-539; SR.
Common to all, as to assay: NCI anticancer screen, dose series, 48 h

Turning to `COc1ccc2c(c1)CCc1c(CO)c(COC(=O)NC(C)C)n(C)c1-2`, the GI50 is 24 µM (inactive) with HOP-62; 4.38 µM (inactive) with SNB-78; 3.44 µM (inactive) with NCI-H522; 14.6 µM (inactive) with TK-10; 3.21 µM (inactive) in the assay with LXFL 529; 3.74 µM (inactive) with SW-620. Also, the GI50 with NCI/ADR-RES was 16.1 µM (inactive); with HCT-15, 13 µM; with COLO 205 it was 2.09 µM (inactive); in the assay with MCF7, 9.79 µM (inactive); in the assay on SK-MEL-28, 5.02 µM (inactive); in the assay on DMS-273, 5.48 µM (inactive). Further, the GI50 with KM-20L2 was 6.59 µM (inactive); in the assay with HOP-18, 1.55 µM (inactive); in the assay with DMS-114 it was 2.59 µM (inactive); in the assay on SF-539 it was 12.9 µM (inactive).

With `CC(C)(C)/N=C/N1C=Cc2nc3ccccc3cc2C1`, the GI50 is > 100 µM (inactive) with HOP-62; > 100 µM (inactive) in the assay with SNB-78; > 100 µM (inactive) in the assay with NCI-H522; > 100 µM (inactive) in the assay on TK-10; > 100 µM (inactive) in the assay on LXFL 529; 19.5 µM (inactive) in the assay with SW-620. In addition, the GI50 is 57.1 µM in the assay with HCT-15; 36.9 µM (inactive) in the assay on COLO 205; > 100 µM (inactive) in the assay on SK-MEL-28; > 100 µM (inactive) in the assay on DMS-273; > 100 µM (inactive) with KM-20L2; > 100 µM (inactive) in the assay on HOP-18. Moreover, the GI50 with DMS-114, in the assay on SF-539 and in the assay on SR was > 100 µM (inactive) each time.

On to `COc1ccc(-c2ccccc2)c(N/N=C2\CCCNC2=O)c1`, for which the GI50 was 19.6 µM (inactive) in the assay on HOP-62; 93.5 µM (inactive) in the assay on SNB-78; > 100 µM (inactive) with NCI-H522; > 100 µM (inactive) with TK-10; > 100 µM (inactive) with LXFL 529; > 100 µM (inactive) with SW-620. Moreover, the GI50 is over 100 µM in the assay on HCT-15; > 100 µM (inactive) in the assay with COLO 205; > 100 µM (inactive) with SK-MEL-28; > 100 µM (inactive) in the assay on DMS-273; > 100 µM (inactive) in the assay on KM-20L2; > 100 µM (inactive) in the assay on HOP-18. Also, the GI50 is > 100 µM (inactive) with DMS-114, 50.7 µM (inactive) in the assay with SF-539 and 3.55 µM (inactive) in the assay with SR.

For the compound `O=C1C(Cl)=C(Cl)C(=O)N1C1C2CC3CC(C2)CC1C3` (stereo unspecified), the GI50 with HOP-62 is > 100 µM (inactive); in the assay on SNB-78, > 100 µM (inactive); in the assay on NCI-H522, 27.9 µM (inactive); in the assay on TK-10, > 100 µM (inactive); in the assay on LXFL 529, 47.5 µM (inactive); with SW-620, 47 µM (inactive). Besides, the GI50 with HCT-15 was over 100 µM; in the assay with COLO 205 it was 32.8 µM (inactive); with SK-MEL-28, > 100 µM (inactive); in the assay on DMS-273, > 100 µM (inactive); in the assay on KM-20L2, > 100 µM (inactive); with HOP-18 it was > 100 µM (inactive). Further, the GI50 in the assay on DMS-114 is > 100 µM (inactive); in the assay with SF-539, > 100 µM (inactive); with SR, 31 µM (inactive).

On to `CC1CC(c2ccc(Cl)c(Cl)c2)=Nc2ccccc2S1` (stereo unspecified), for which the GI50 in the assay with HOP-62, in the assay on SNB-78, in the assay with NCI-H522, in the assay on TK-10, in the assay on LXFL 529 and with SW-620 was > 100 µM (inactive) each time. Also, the GI50 is over 100 µM in the assay with HCT-15; > 100 µM (inactive) with COLO 205; > 100 µM (inactive) in the assay on SK-MEL-28; > 100 µM (inactive) in the assay with DMS-273; > 100 µM (inactive) in the assay on KM-20L2; > 100 µM (inactive) in the assay with HOP-18. Moreover, the GI50 was > 100 µM (inactive) in the assay on DMS-114, > 100 µM (inactive) in the assay with SF-539 and 46 µM (inactive) in the assay with SR.

On to `O=c1cc(-c2ccc(Cl)cc2)oc2cc(OCCCOc3ccc4c(=O)cc(-c5ccc(Cl)cc5)oc4c3)ccc12`, for which the GI50 in the assay with HOP-62, with SNB-78, in the assay on NCI-H522, in the assay with TK-10, in the assay with LXFL 529 and with SW-620 was > 100 µM (inactive) each time. Also, the GI50 was over 100 µM in the assay on HCT-15; > 100 µM (inactive) in the assay with COLO 205; > 100 µM (inactive) in the assay on SK-MEL-28; > 100 µM (inactive) with DMS-273; > 100 µM (inactive) in the assay on KM-20L2; > 100 µM (inactive) with HOP-18. Further, the GI50 in the assay with DMS-114, in the assay with SF-539 and in the assay on SR was > 100 µM (inactive) each time.

(Values after ChEMBL document CHEMBL1201862, “PubChem BioAssay data set” (2004).)
